Reference: US20060281700A1, “SYNERGISTIC MODULATION OF FLT3 KINASE USING AMINOPYRIMIDINES KINASE MODULATORS” (priority 2005, published 2006)

Legend:
[1] = test system: MV4-11 tumor xenografts; test: MV4-11 human tumor xenograft regression model in nude mice; type: in vivo
Procedure: Female athymic nude mice (CD-1, nu/nu, 9-10 weeks old) were obtained from Charles River Laboratories (Wilmington, Mass.) and were maintained according to NIH standards. All mice were group housed (5 mice/cage) under clean-room conditions in sterile micro-isolator cages on a 12-hour light/dark cycle in a room maintained at 21-22° C. and 40-50% humidity. Mice were fed irradiated standard rodent diet and water ad libitum. All animals were housed in a Laboratory Animal Medicine facility that is fully accredited by the American Association for Assessment and Accreditation of Laboratory Animal Care (AAALAC). […]
The time course of the inhibitory effects of FLT3 inhibitor compounds on the growth of MV4-11 tumors is illustrated in FIG. 1. […] Percent inhibition (% I) of tumor growth was calculated versus tumor growth in the vehicle-treated Control group on the last study day. Statistical significance versus Control was determined by Analysis of Variance (ANOVA) followed by Dunnett's t-test: *p<0.05; **p<0.01.
(See FIG. 2). […] Percent Inhibition was calculated versus the mean tumor weight in the vehicle-treated control group. Statistical significance versus Control was determined by ANOVA followed by Dunnett's t-test: **p<0.01. […]

[2] = test system: cells that depend on FLT3 for growth; test: Standard 72-hour cell proliferation assay, FLT3 dependent cell lines taken together; type: cell-based; conditions: 72-hour proliferation; depending on the cell type
Procedure: The cell lines that were tested included those that are dependent on FLT3ITD mutant activity for growth (MV4-11 and Baf3-FLT3ITD), FLT3 wt activity for growth (Baf3FLT3) and those that grow independent of FLT3 activity (THP-1). […] Baf3-FLT3 and Baf3-FLT3ITD cell lines were obtained from Dr. Michael Henrich and the Oregon Health Sciences University. The Baf3 FLT3 cell lines were created by stable transfection of parental Baf3 cells (a murine B cell lymphoma line dependent on the cytokine IL-3 for growth) with either wild-type FLT3 or FLT3 containing the ITD insertion in the juxatamembrane domain of the receptor resulting in its constitutive activation. Cells were selected for their ability to grow in the absence of IL-3 and in either the presence of FLT3 ligand (Baf3-FLT3) or independent of any growth factor (Baf3-ITD). […]
Dose responses for the individual compounds alone were determined for each cell line using a standard 72-hour cell proliferation assay (see FIGS. 6.1-6.8). […]
Cell proliferation assay for MV4-11, Baf3-ITD, Baf3-FLT3 and THP-1 cells. […] Total cell growth is quantified as the difference in luminescent counts (relative light units, RLU) of cell number at Day 0 compared to total cell number at Day 3 (72 hours of growth and/or compound treatment). One hundred percent inhibition of growth is defined as an RLU equivalent to the Day 0 reading. […]

Question: With `Cn1cncc1C(N)(c1ccc(Cl)cc1)c1ccc2c(c1)c(-c1cccc(Cl)c1)cc(=O)n2C` (single isomer, unassigned; (+)) [Tipifarnib, (+)-6-[amino(4-chlorophenyl)(1-methyl-1H-imidazol-5-yl)methyl]-4-(3-chlorophenyl)-1-methyl-2(1H)-quinolinone] as the compound, how does the “inhibition of tumor volume vs vehicle-treated control group” value ([1]; Day 16, Compound D 25 mg/kg bid, Tipifarnib 50 mg/kg, alone or in combination) read?
Answer: Its value is “ineffective”.

Question: And the “tumor growth vs Vehicle-treated group” value ([1]; Tipifarnib 50 mg/kg single agent, nine days)?
Answer: The value was “ineffective”.

Question: And the “single agent potency for inhibition of proliferation” value [2]?
Answer: The value was “high nanomolar to high picomolar range”.
